According to patent publication US20230220001A1, “METHOD FOR SYNTHESIS OF THIOETHER-[…]” ([…] RESEARCH GMBH, priority 2020, published 2023):
Starred links: 1 amine or outer side, 2 acyl side, 3 side chain; linkers in the order of their positions; H or OH if unused. Positions of bridges follow the written chain, without caps; N, C: chain ends. Non-standard residues stand in square brackets, D forms with d. Residues, ends and D or L forms follow the SMILES beside them. Trp(2-yl) = O=C([C@H](Cc1c([*:3])[nH]c2ccccc12)N[*:1])[*:2]; Ile(4R-OH,5-OH) = C[C@H]([C@H](N)C(=O)O)[C@@H](O)CO; Pro(4,4-F2) = O=C(O)[C@@H]1CC(F)(F)CN1; Hyp = O=C(O)[C@@H]1C[C@@H](O)CN1; Tle = CC(C)(C)[C@H](N)C(=O)O; Aze = O=C(O)[C@@H]1CCN1; Ac3c = NC1(C(=O)O)CC1; Aib = CC(C)(N)C(=O)O; Sar = CNCC(=O)O

Legend:
RNA Polymerase II = biological target: T1, RNA Polymerase II (Homo sapiens, UniProt P24928); assay: RNA Polymerase II assay (HeLaScribe nuclear extract in vitro transcription system, RT-PCR quantification of mRNA); type: biochemical; conditions: for residual RNAP II activity at highest concentration tested: highest concentration tested (range up to 1×10^−6 M)
T1 construct: HeLaScribe® Nuclear extract in vitro transcription system (Promega, #E3092); host or cells: HeLa nuclear extract (purchased)
Protocol: (§1) Cytotoxicity of compounds of the invention was assessed using an RNA Polymerase II inhibition assay and by assessing cytotoxicity in a cell viability assay on HEK cells and HEK-OATP1 B3 cells, the results of which are depicted in Table 6.
The in vitro RNA Pol II assay was done using a HeLaScribe® Nuclear extract in vitro transcription system (Promega, #E3092) was used to compare the inhibitory effect of amanitin analogues on RNA Pol at seven concentrations from 6.4×10^−11 M to 1×10^−6 M (serial 1:5 dilutions). As positive control, template run-off transcripts from a CMV immediate early promoter were used (Promega, #E3092). Reverse transcription was followed by real time-PCR for the quantification of the mRNA product. RNA detection was performed using a QuantiFast Probe RT-PCR Plus Kit (Qiagen). The PCR product was monitored by determination of fluorescence on a Real Time PCR CFX Connect Real Time System (Bio-Rad Laboratories Inc.). α-amanitin, analogues and untreated control were each analyzed in triplicates. Negative control, positive control and no target control were analyzed in duplicates. The ACT method was used to calculate the inhibitory effect of the test item on transcription normalized to the untreated control.

OATP1B3 = assay: Cell viability assay (BrdU incorporation) on HEK293-OATP1B3 cells overexpressing OATP1B3; type: cell-based; conditions: human, HEK293-OATP1B3 cells (overexpress OATP1B3), 96 h drug exposure, read-out: Cytotoxicity on HEK-OATP1B3 cells EC50
Protocol: as §1
(§2) Cell Viability Assay (HEK and HEK-OATP1B3 Cells)
(§3) The in vitro toxicity of the inventive compounds was determined in Human embryonic kidney HEK293 cells and in HEK293-OATP1B3 cells that overexpress the organic anion-transporting polypeptide […] (OATP1B3) to assess whether OATP1 B3 mediates active transport of amanitin analogues into the cell. Wildtype HEK293 (ATCC, Manassas, Va.) and HEK293-OATP1 B3 cells (see: Pahl et al., Cytotoxic Payloads for Antibody-Drug Conjugates In: Amatoxins as RNA Polymerase II Inhibiting Antibody-Drug Conjugate (ADC) Payloads CHAPTER 19, The Royal Society of Chemistry 2019, ISBN: 978-1-78801-077-1, or e.g. Bowman et al. Drug Metab Dispos 48:18-24, January 2020) were incubated with compound 7f (α-amanitin) or the compounds as disclosed in Table 6. Cytotoxicity was determined by a BrdU assay. HEK293 and HEK-OATP1B3 cells were plated at 2.5×10^3 cells/well in a 1:1 mixture of Ham's F12 with DMEM containing 10% charcoal-stripped FCS onto poly-D-lysine-coated 96-well plates and grown for 24 hours. Subsequently, cells were incubated with amanitin derivatives at 8 different concentrations (1×10^−6 M to 1.28×10^−11 M, serial 1:5 dilutions). Following 96 h of drug exposure, cell viability was determined by a BrdU incorporation assay (Cell Proliferation ELISA, BrdU, Roche) and chemiluminescence was measured using a FLUOstar Optima plate reader (BMG LABtech). Data analysis was performed with GraphPad Prism 9.0 (GraphPad Software, Inc., La Jolla, Calif.) software to plot curve fits.

[1] = Cell viability assay (BrdU incorporation) on HEK293 cells; type: cell-based; conditions: human, wildtype HEK293 cells, 96 h drug exposure, read-out: Cytotoxicity on HEK-293 cells EC50
Protocol: as §1, §2, §3

[2] = slow acting toxin; T. Wieland 1986; cited from earlier work

| Compound | IC50 (RNA Polymerase II) [nM] | EC50 at 96 h (OATP1B3) [nM] | EC50 at 96 h [1] [nM] | LD50 [2] [µg/kg] | residual RNAP II activity at highest concentration tested (RNA Polymerase II) [%] |
| --- | --- | --- | --- | --- | --- |
| CC[C@H](C)[C@@H]1NC(=O)CNC(=O)[C@@H]2Cc3c([nH]c4ccccc34)SC[C@H](NC(=O)CNC1=O)C(=O)N[C@@H](CC(N)=O)C(=O)N1C[C@H](O)C[C@H]1C(=O)N[C@@H]([C@@H](C)[C@@H](O)CO)C(=O)N2 [Compound 7d] (cyclo(CN[Hyp][Ile(4R-OH,5-OH)][Trp(2-yl)]GIG); thioether 1-5) | 6.8 | 0.23 | 81 | – | – |
| CC[C@H](C)[C@@H]1NC(=O)CNC(=O)[C@@H]2Cc3c([nH]c4cc(O)ccc34)[S@+]([O-])C[C@H](NC(=O)CNC1=O)C(=O)N[C@@H](CC(N)=O)C(=O)N1C[C@H](O)C[C@H]1C(=O)N[C@@H]([C@@H](C)[C@@H](O)CO)C(=O)N2 [Compound 7f, Alpha-amanitin, reference compound] | 2.7 | 5.2 | 210 | 50 to 100 | – |
| CC[C@H](C)[C@@H]1NC(=O)CNC(=O)[C@@H]2Cc3c([nH]c4ccccc34)SC[C@H](NC(=O)[C@H]3CCCN3C1=O)C(=O)N[C@@H](CC(N)=O)C(=O)N1C[C@H](O)C[C@H]1C(=O)N[C@@H]([C@@H](C)[C@@H](O)CO)C(=O)N2 [Compound 7i] (cyclo(CN[Hyp][Ile(4R-OH,5-OH)][Trp(2-yl)]GI[dP]); thioether 1-5) | 12 | 210 | > 1000 | – | 20 |
| CC[C@H](C)[C@@H]1NC(=O)CNC(=O)[C@@H]2Cc3c([nH]c4ccccc34)SC[C@H](NC(=O)CN(C)C1=O)C(=O)N[C@@H](CC(N)=O)C(=O)N1C[C@H](O)C[C@H]1C(=O)N[C@@H]([C@@H](C)[C@@H](O)CO)C(=O)N2 [Compound 7l] (cyclo(CN[Hyp][Ile(4R-OH,5-OH)][Trp(2-yl)]GI[Sar]); thioether 1-5) | 15 | 29 | > 1000 | – | 10 |
| CC[C@H](C)[C@@H]1NC(=O)CNC(=O)[C@@H]2Cc3c([nH]c4ccccc34)SC[C@H](NC(=O)C(C)(C)NC1=O)C(=O)N[C@@H](CC(N)=O)C(=O)N1C[C@H](O)C[C@H]1C(=O)N[C@@H]([C@@H](C)[C@@H](O)CO)C(=O)N2 [Compound 7m] (cyclo([Aib]CN[Hyp][Ile(4R-OH,5-OH)][Trp(2-yl)]GI); thioether 2-6) | 71 | 120 | > 1000 | – | 15 |
| CC[C@H](C)[C@@H]1NC(=O)CNC(=O)[C@@H]2Cc3c([nH]c4ccccc34)SC[C@H](NC(=O)CNC1=O)C(=O)N[C@@H](CC(N)=O)C(=O)N1CC[C@H]1C(=O)N[C@@H]([C@@H](C)[C@@H](O)CO)C(=O)N2 [Compound 7n] (cyclo([Aze][Ile(4R-OH,5-OH)][Trp(2-yl)]GIGCN); thioether 3-7) | 160 | > 100 | > 1000 | – | 40 |
| CC[C@H](C)[C@@H]1NC(=O)CNC(=O)[C@@H]2Cc3c([nH]c4ccccc34)SC[C@H](NC(=O)[C@@H](C)NC1=O)C(=O)N[C@@H](CC(N)=O)C(=O)N1C[C@H](O)C[C@H]1C(=O)N[C@@H]([C@@H](C)[C@@H](O)CO)C(=O)N2 [Compound 7o] (cyclo(CN[Hyp][Ile(4R-OH,5-OH)][Trp(2-yl)]GI[dA]); thioether 1-5) | 1.4 | 28 | > 1000 | – | – |
| C[C@H]([C@@H]1NC(=O)[C@@H]2C[C@@H](O)CN2C(=O)[C@H](CC(N)=O)NC(=O)[C@@H]2CSc3[nH]c4ccccc4c3C[C@H](NC1=O)C(=O)NCC(=O)N[C@@H](C(C)(C)C)C(=O)NCC(=O)N2)[C@@H](O)CO [Compound 7p] (cyclo(CN[Hyp][Ile(4R-OH,5-OH)][Trp(2-yl)]G[Tle]G); thioether 1-5) | 25 | 16 | > 1000 | – | – |
| CC[C@H](C)[C@@H]1NC(=O)CNC(=O)[C@@H]2Cc3c([nH]c4ccccc34)SC[C@H](NC(=O)CNC1=O)C(=O)N[C@@H](CC(N)=O)C(=O)N1CC(F)(F)C[C@H]1C(=O)N[C@@H]([C@@H](C)[C@@H](O)CO)C(=O)N2 [Compound 7q] (cyclo(CN[Pro(4,4-F2)][Ile(4R-OH,5-OH)][Trp(2-yl)]GIG); thioether 1-5) | 110 | 49 | > 1000 | – | 10 |
| CC[C@H](C)[C@@H]1NC(=O)CNC(=O)[C@@H]2Cc3c([nH]c4ccccc34)SC[C@H](NC(=O)C3(CC3)NC1=O)C(=O)N[C@@H](CC(N)=O)C(=O)N1C[C@H](O)C[C@H]1C(=O)N[C@@H]([C@@H](C)[C@@H](O)CO)C(=O)N2 [Compound 7r] (cyclo([Ac3c]CN[Hyp][Ile(4R-OH,5-OH)][Trp(2-yl)]GI); thioether 2-6) | 26 | 10 | > 1000 | – | – |
